Reference: patent publication US20230272012A1, “PEPTIDES AND METHODS OF USE” (REALTA LIFE SCIENCES, INC., priority 2020, published 2023)
Bridge positions count the residues as written; N and C are the ends. Square brackets hold non-standard residues; d marks the D form. Ends that are not written are not given here. Peptide text beside a SMILES is read from it. R8 = C=CCCCCCC[C@@](C)(N)C(=O)O; S5 = C=CCCC[C@](C)(N)C(=O)O; Sar = CNCC(=O)O

Columns and labels:
MPO = biological target: T1, MPO (Homo sapiens, UniProt P05164); test: MPO activity assay (TMB oxidation); type: biochemical; settings: half-maximal values from dose-response curves
T1 construct: purchased Lee BioSolutions (Maryland Heights, Mo.)
T1 sequence (P05164 49-745): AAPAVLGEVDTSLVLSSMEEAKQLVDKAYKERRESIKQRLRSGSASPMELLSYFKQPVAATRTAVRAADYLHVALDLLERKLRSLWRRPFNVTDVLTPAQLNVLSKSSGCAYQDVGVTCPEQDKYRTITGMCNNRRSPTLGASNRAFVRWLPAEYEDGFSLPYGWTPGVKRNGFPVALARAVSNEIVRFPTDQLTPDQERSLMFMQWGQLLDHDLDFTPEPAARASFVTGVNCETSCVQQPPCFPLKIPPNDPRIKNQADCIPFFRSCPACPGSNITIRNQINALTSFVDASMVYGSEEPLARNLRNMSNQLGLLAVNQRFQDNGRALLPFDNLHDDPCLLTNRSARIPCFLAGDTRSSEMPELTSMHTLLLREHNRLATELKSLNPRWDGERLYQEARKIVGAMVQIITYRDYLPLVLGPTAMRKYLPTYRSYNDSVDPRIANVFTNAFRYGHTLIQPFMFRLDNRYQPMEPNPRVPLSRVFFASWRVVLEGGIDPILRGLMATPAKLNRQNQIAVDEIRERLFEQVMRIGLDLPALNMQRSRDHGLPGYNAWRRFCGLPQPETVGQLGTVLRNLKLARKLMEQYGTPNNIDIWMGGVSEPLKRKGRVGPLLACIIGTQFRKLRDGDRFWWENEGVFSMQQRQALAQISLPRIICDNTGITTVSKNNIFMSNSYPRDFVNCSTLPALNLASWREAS
Method: The MPO activity assay was performed as previously described. Briefly, peptides were diluted to 12 mg/ml and serially titrated in a 96 well plate at a volume of 0.02 ml. MPO was diluted to 20 μg/ml and 0.02 ml was added to the titrated peptides. TMB (3,30,5,50-tetramethylbenzidine) (0.1 ml) was added to each well for 2 minutes, followed by 0.1 ml of 2.5 N H2SO4 for another 2 minutes, and then read on a 96 well plate reader (BioTek) at 450 nm.
The inventors also assessed the ability of RLS-0127* and RLS-0133* to inhibit MPO activity as determined by inhibition of oxidation of TMB in a plate-based assay. […] Additionally, the inventors assessed the ability of RLS-0127* and RLS-0133* to bind C1q in a plate-based assay in which C1q is coated on the plate and increasing amounts of the peptides are added, followed by primary antibody to the peptides and secondary antibody conjugated to HRP. The plate was then incubated with TMB to give a […] signal that is detected at a wavelength of 450 nm in a plate reader.

[1] = tested on: antibody-initiated complement activation (human O sera and AB red blood cells); test: ABO incompatibility hemolytic assay of complement activity (CH50-type); type: cell-based; settings: peptide 0.8 mg/ml (~0.5 mM)
Method: (§1) FIG. 1A-1B show PIC1 peptides' inhibition of complement activation in an ABO incompatibility assay. […] Inhibition of ABO incompatibility hemolysis in a CH50-type assay. Peptides are at a final concentration of 0.5 mM. Values are represented as a percent of the positive control, which consists of human O sera and AB red blood cells in GVBS^++ buffer. Data are the means of n=3 independent experiments±SEM.
(§2) For hemolytic complement assays, human red blood cells (RBCs) from type AB donors were purified, washed, and standardized to 1.0×10^9 cells/ml, as previously described. Human sera from type O donors at a 15% final concentration was combined with 0.5 mM of the peptides and the volume was brought up to 0.2 ml with GVBS^++ and 5.0×10^7 RBCs. The samples were incubated for 1 hour at 37° C. and then spun at 3,000 rpm for 5 minutes and the supernatant was collected and read at 412 nm. Values are represented as a percent of the positive control, which consists of human O sera and AB red blood cells in GVBS^++ buffer.
(§3) To assess the extent to which the peptide variants inhibit antibody-initiated complement activation, an ABO incompatibility ex vivo assay was utilized in which purified erythrocytes from a ‘type AB+’ donor are incubated with sera from a ‘type O’ subject containing anti-A and anti-B antibodies. Peptides were tested at a concentration of 0.8 mg/ml (˜0.5 mM). […] D-amino acid variants PA-0127 and PA-0133 decreased ABO hemolysis by 20% (P value=0.083) and 25% (P value=0.076), respectively. […]

[2] = as above; type: cell-based, human; settings: human; peptide 0.8 mg/ml (~0.5 mM); read-out: decrease of ABO hemolysis compared to PA-C9Sar
Method: as §1, §2, §3

PD-1/PD-L1 interaction = biological target: T2, PD-1/PD-L1 interaction (Homo sapiens, UniProt Q15116+Q9NZQ7); test: PD-1/PD-L1 Blockade Bioassay (Promega); type: cell-based; settings: increasing peptide concentrations
T2 construct: host or cells: PD-1 effector cells; PD-L1 aAPC/CHO-K1 cells
Method: PD-1 effector cells were incubated with PD1-L1 aAPC cells in the absence or presence of increasing concentrations of anti-PD-1 antibody (positive control) and select PIC1 peptides. Luminescence was detected in luminometer plate reader.
To assess if PIC1 peptides could block PD-1 inhibitory activity in a cell-based assay, select peptides were screened in the PD-1/PD-L1 Blockade Bioassay (Promega). The PD-1/PD-L1 Blockade Bioassay is a biologically relevant MOA-based assay that can be used to measure the potency and stability of antibodies and other biologics designed to block the PD-1/PD-L1 interaction. This bioluminescent cell-based assay is used to measure the potency and stability of molecules targeting PD-1 and consists of two genetically engineered cell lines: aAPC/CHO-K1 Cells are CHO-K1 cells with an engineered cell surface protein designed to activate cognate TCRs in an antigen-independent manner. When the two cell types are co-cultured, the PD-1/PD-L1 interaction inhibits TCR signaling and NFAT-mediated luciferase activity. Addition of an inhibitory molecule that blocks either PD-1 or PD-L1 releases the inhibitory signal and results in TCR signaling and NFAT-mediated luciferase activity.

[3] = tested on: purified human Pan T-cells; test: T-cell exhaustion protocol (Dynabeads re-stimulation); type: cell-based; settings: peptides 2 mg/ml at each stimulation; supernatant ELISA
Method: Purified human pan-T-cells were subject to stimulation with Dynabeads every 48 hours over the period of 8 days with cells also receiving PIC1 peptides (2 mg/ml) at each stimulation. Cells not receiving Dynabeads were run in parallel to assess background levels of Caspase 3/7 signal. At the eighth day, cells were harvested and the levels of Caspase 3/7 determined by ELISA.
Purified human pan-T-cells were subject to stimulation with Dynabeads every 48 hours over the period of 8 days with cells also receiving PIC1 peptides (2 mg/ml) at each stimulation. Cell supernatants were collected at each stimulation and levels of IL-2 and IFN-gamma assayed by ELISA.
T-cell exhaustion is a form of T-cell dysfunction that occurs in cancer. It is defined by poor effector function, reduction in cytokine release (e.g., IL-2, TNF-alpha, IFN-gamma), sustained expression of inhibitory receptors (e.g., PD-1, LAG-3, CD244, CD160) with the progressive loss of effector function due to overstimulation. Exhaustion prevents optimal control of tumor growth. Exhausted T cells are prevalent in the tumor microenvironment (TME) and can lead to T-cell apoptosis. T-cell exhaustion is reversible, and pharmaceutical inhibition of T-cell exhaustion has been considered a promising strategy by many cancer researchers. To ascertain if PIC1 peptides could reverse T-cell exhaustion and increase T cell viability and effector function, a T-cell exhaustion protocol was developed. To induce T-cell exhaustion, purified human Pan T-cells were stimulated with T-Activator CD3/CD28 Dynabeads and cells are washed and re-stimulated every 48 hours. PIC1 peptides were added to the cells after each stimulation with Dynabeads. After three to four stimulations cells were harvested for readouts which consisted of assessing T-cell apoptosis by measuring Caspase 3/7 levels and production of cytokines IL-2 and IFN-gamma which is indicative of T-cell functionality. […] To further evaluate if PIC1 peptides could restore T-cell functionality in cells that have undergone the exhaustion protocol, the inventors next assessed production of cytokines IL-2 and IFN-gamma. Supernatants from the cells after each stimulation were collected and the cytokines measured by ELISA. […] The lower level of IFN-gamma signal compared to IL-2 was consistently seen in this assay.

T2 sequence (Q15116 25-288): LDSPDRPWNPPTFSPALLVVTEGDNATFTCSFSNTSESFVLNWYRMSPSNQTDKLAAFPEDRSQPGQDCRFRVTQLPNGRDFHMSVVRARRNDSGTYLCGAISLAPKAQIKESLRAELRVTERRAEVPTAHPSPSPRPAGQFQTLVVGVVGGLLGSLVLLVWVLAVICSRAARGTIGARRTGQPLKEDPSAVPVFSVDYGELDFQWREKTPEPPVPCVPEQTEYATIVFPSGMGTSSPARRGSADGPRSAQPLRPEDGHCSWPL
T2 sequence (Q9NZQ7 19-290): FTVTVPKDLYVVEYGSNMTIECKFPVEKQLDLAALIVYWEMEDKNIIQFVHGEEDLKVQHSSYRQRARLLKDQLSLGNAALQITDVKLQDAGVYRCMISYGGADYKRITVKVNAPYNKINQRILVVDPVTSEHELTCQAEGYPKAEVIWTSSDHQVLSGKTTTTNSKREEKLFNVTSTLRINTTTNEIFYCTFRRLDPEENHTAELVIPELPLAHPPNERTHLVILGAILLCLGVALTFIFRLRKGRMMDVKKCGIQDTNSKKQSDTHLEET

| Molecule | MPO inhibition compared with PA-C9Sar (MPO) | inhibition of PD-1/PD-L1 inhibitory signaling (luminescence) (PD-1/PD-L1 interaction) | further results |
| --- | --- | --- | --- |
| CC[C@H](C)[C@H](N)C(=O)N[C@@H](C)C(=O)N[C@@H](CC(C)C)C(=O)N[C@H](C(=O)N[C@@H](CC(C)C)C(=O)N[C@@H](CCC(=O)O)C(=O)N1CCC[C@H]1C(=O)N[C@H](C(=O)N(C)CC(=O)N[C@@H](CS)C(=O)N[C@@]1(C)CCCC=CCCC[C@@](C)(C(=O)O)NC(=O)[C@H](C)NC(=O)[C@H](CCCNC(=N)N)NC(=O)[C@H](CCC(=O)O)NC1=O)[C@@H](C)CC)[C@@H](C)CC [PA-0155] (H-IALILEPI[Sar]C[S5]ERA[S5]-OH; staple 11-15) | decreased MPO inhibition | did not show PD-1/PD-L1 inhibitory activity | inhibition of complement in the hemolytic assay compared to PA-C9Sar [1]: significant increase in complement inhibitory activity; decrease in ABO hemolysis compared to reference peptide at 1 h [2]: 64% |
| IALILEP(Sar)CS5QERS5dA (IALILEP[Sar]C[S5]QER[S5][dA]; bridges not given here; also: S5 10-14 may or may not be stapled) [PA-0145] | – | – | increase in complement inhibition compared to PA-I8Sar [1]: ~10% |
| IALILEP(Sar)CS5QdERS5A (IALILEP[Sar]C[S5]Q[dE]R[S5]A; staple 10-14) [PA-0144] | – | did not show PD-1/PD-L1 inhibitory activity | – |
| IALILEP(Sar)dCS5QERS5A (IALILEP[Sar][dC][S5]QER[S5]A; staple 10-14) [PA-0143] | – | did not show PD-1/PD-L1 inhibitory activity | – |
| IALILEPI(Sar)CQEdRAA (IALILEPIXCQERAA; D-arginine, sarcosine; MOD_RES (9)..(9) Sarcosine; MOD_RES (13)..(13) D-amino acid) [PA-0167] | – | – | inhibition of complement in the hemolytic assay compared to PA-C9Sar [1]: slightly less well |
| IALILEPdI(Sar)CQERAA (IALILEPIXCQERAA; D-isoleucine, sarcosine; MOD_RES (8)..(8) D-amino acid; MOD_RES (9)..(9) Sarcosine) [PA-0163] | decreased MPO inhibition | – | – |
| IALILEdPI(Sar)CQERAA (IALILEPIXCQERAA; D-proline, sarcosine; MOD_RES (7)..(7) D-amino acid; MOD_RES (9)..(9) Sarcosine) [PA-0162] | – | did not show PD-1/PD-L1 inhibitory activity | IL-2 signal at stimulation 2 [3]: showed an IL-2 signal at stimulation 2; inhibition of complement in the hemolytic assay compared to PA-C9Sar [1]: slightly less well |
| IALIR8EP(Sar)CCQS5RAA (IALI[R8]EP[Sar]CCQ[S5]RAA; bridges not given here; also: R8/S5 5-12 may or may not be stapled) [PA-0136] | – | – | inhibition of ABO incompatible hemolysis compared to PA-I8Sar [1]: same level as the parent molecule |
| IALIR8EPI(Sar)CQS5RAA (IALI[R8]EPI[Sar]CQ[S5]RAA; staple 5-12) [PA-0148] | decreased MPO inhibition | – | – |
| IALIS5EP(Sar)S5CQERAA (IALI[S5]EP[Sar][S5]CQERAA; bridges not given here; also: S5 5-9 may or may not be stapled) [PA-0140] | – | – | MPO inhibition compared with PA-I8Sar (MPO): reduced inhibition of MPO activity; inhibition of ABO incompatible hemolysis compared to PA-I8Sar [1]: lesser extent |
| IAS5ILES5I(Sar)CQERAA (IA[S5]ILE[S5]I[Sar]CQERAA; staple 3-7) [PA-0153] | decreased MPO inhibition | – | – |
| RLS-0142: PIC1 peptide screened in the bioassay; no sequence printed (IALILEP[Sar][dC][S5]QER[S5]A; staple 10-14) | – | did not show PD-1/PD-L1 inhibitory activity | – |
| S5ALIS5EP(Sar)CCQERAA ([S5]ALI[S5]EP[Sar]CCQERAA; bridges not given here; also: S5 1-5 hydrocarbon staple: may or may not be stapled) [PA-0138] | – | – | inhibition of ABO incompatible hemolysis compared to PA-I8Sar [1]: lesser extent |
| S5ALIS5EPI(Sar)CQERAA ([S5]ALI[S5]EPI[Sar]CQERAA; staple 1-5) [PA-0151] | decreased MPO inhibition | – | – |
| dIALILEPI(Sar)CQERAA (IALILEPIXCQERAA; D-isoleucine, sarcosine; MOD_RES (1)..(1) D-amino acid; MOD_RES (9)..(9) Sarcosine) [PA-0156] | – | did not show PD-1/PD-L1 inhibitory activity | – |
